Results published in US20070275988A1, “Transition state structure and inhibitors of thymidine phosphorylases” (priority 2003, published 2007).

Assays:
angiogenesis = settings: cited from earlier work
[1] = FUra versus FdUrd; cited from earlier work
[2] = substrate: O=c1[nH]c(=O)n([C@H]2C[C@H](O)[C@@H](CO)O2)cc1[N+](=O)[O-]; assay: UV-Vis spectrophotometric thymidine phosphorylase assay with 5NdU as substrate; format: biochemical; settings: other: substrate, pH 6.01
Protocol: Binding constants were determined by UV-Vis spectrophotometery using 2′-deoxy-5-nitrouridine (5NdU) as the substrate (Km=50 μM at pH 6.01). The reaction mixture consisted of inhibitor (approximately 1/10×Ki to 10×Ki), 50 mM MES (pH 6.01), 150 mM NaCl, 1 mM EDTA, 5 mM inorganic phosphate, and 250 μM 5NdU in a total of 1 ml. Thymidine phosphorylase was added to approximately 10 nM (1 nM enzyme was used for D723333-P) and the reaction was monitored at λ=347 nm for 30 min. At least five concentrations of inhibitor were used for each compound and experiments were repeated in triplicate. Initial rates were determined by a linear least-squares fit. The Ki for each compound was then determined using the following equation: [formula] where ν is the rate of reaction and V is the maximal rate in the absence of inhibitor.

N=C1CCCN1Cc1[nH]c(=O)[nH]c(=O)c1Cl [TPI]
antiangiogenic activity in vivo (angiogenesis): some antiangiogenic activity in vivo

O=c1[nH]cc(F)c(=O)[nH]1 [FUra, 5-fluorouracil]
fold less potent than FdUrd [1]: 100 to 1000 fold

B1: Thymidine phosphorylase (Homo sapiens) (protein)
chain: APPAPGDFSGEGSQGLPDPSPEPKQLPELIRMKRDGGRLSEADIRGFVAAVVNGSAQGAQIGAMLMAIRLRGMDLEETSVLTQALAQSGQQLEWPEAWRQQLVDKHSTGGVGDKVSLVLAPALAACGCKVPMISGRGLGHTGGTLDKLESIPGFNVIQSPEQMQVLLDQAGCCIVGQSEQLVPADGILYAARDVTATVDSLPLITASILSKKLVEGLSALVVDVKFGGAAVFPNQEQARELAKTLVGVGASLGLRVAAALTAMDKPLGRCVGHALEVEEALLCMDGAGPPDLRDLVTTLGGALLWLSGHAGTQAQGAARVAAALDDGSALGRFERMLAAQGVDPGLARALCSGSPAERRQLLPRAREQEELLAPADGTVELVRALPLALVLHELGAGRSRAGEPLRLGVGAELLVDVGQRLRRGTPWLRVHRDGPALSGPQSRALQEALVLSDRAPFAAPSPFAELVLPPQQ
Km [2]: 50 µM
